Reference: US20050271736A1, “Pyrithione compound and microcapsule using the same” (Fuji Photo Film Co., Ltd., priority 2004, published 2005)

Experiment: Measurement of photo-decomposability of the compound in ethyl acetate solution (absorbance before/after UV exposure)
Assay type: physicochemical
Details: 5.0×10^−5 mol/L in ethyl acetate
Experimental: The absorbance thereof was measured with an absorption photometer (Multichannel Detector PMA 11, trade name, manufactured by Hamamatsu Photonics K.K.). […] After this solution was exposed for 20 seconds by means of a fluorescent lamp of 23 watts having the central wavelength of light emission at 365 nm, which was placed at a distance of 45 mm, the absorbance thereof was measured in the same manner as the above.

OCCCCCCOc1cccn(OCCCCCCO)c1=S [I-1]
absorbance at 370 nm before exposure (1-cm quartz cell, before exposure): 0.64
absorbance at 370 nm after exposure (exposed 20 seconds, 23 W fluorescent lamp, central wavelength 365 nm, distance 45 mm): 0.15
